Consider six compounds from patent US20240010606A1, “FUMARATE DERIVATIVES AND THEIR MEDICAL USE” (Sitryx Therapeutics Limited, priority 2020, published 2024).

Series [1] in a line: Hepatocyte stability assay, human. The series is classed as in vitro ADME. The following applies: cryopreserved hepatocytes, 10 μM compound. An excerpt:
(§1) Biological Example 3—Hepatocyte Stability Assay
(§2) Defrosted cryo-preserved hepatocytes (viability >70%) are used to determine the metabolic stability of a compound via calculation of intrinsic clearance (CIint; a measure of the removal of a compound from the liver in the absence of blood flow and cell binding). Clearance data are particularly important for […] as they can be used in combination with in vivo data to predict the half-life and oral bioavailability of a drug.
(§3) The metabolic stability in hepatocytes assay involves a time-dependent reaction using both positive and negative controls. The cells must be pre-incubated at 37° C. then spiked with test compound (and positive control); samples taken at pre-determined time intervals are analysed to monitor the change in concentration of the initial drug compound over 60 minutes. A buffer incubation reaction (with no hepatocytes present) acts as a negative control and two cocktail solutions, containing compounds with known high and low clearance values (verapamil/7-hydroxycoumarin and propranolol/diltiazem), act as positive controls. • 1. The assay is run with a cell concentration of 0.5×10^6 cells/mL in Leibovitz buffer. • 2. All compounds and controls are run in duplicate. • 3. Compound concentration is 10 μM. • 4. All compounds and controls are incubated with both cells and buffer to show turnover is due to hepatic metabolism. • 5. All wells on the incubation plate will have 326.7 μL of either cells or buffer added. • 6. Prior to assay, cell and buffer-only incubation plates are preincubated for 10 mins at 37° C. • 7. The assay is initiated by adding compounds, 3.3 μL of 1 mM in 10% DMSO-90% Buffer; final DMSO concentration is 0.1%. • 8. Samples are taken at regular timepoints (0, 5, 10, 20, 40, 60 min) until 60 mins. • 9. Sample volume is 40 μL and it is added to 160 μL of crash solvent (acetonitrile with internal standard) and stored on ice. • 10. At the end of the assay, the crash plates are centrifuged at 3500 rpm for 20 mins at 4° C. • 11. 80 μL of clear supernatant is removed and mixed with 80 μL of deionised water before being analysed by LC-MS/MS.
(§4) Raw LC-MS/MS data are exported to, and analysed in, Microsoft Excel for determination of intrinsic clearance. The percentage remaining of a compound is monitored using the peak area of the initial concentration as 100%. Intrinsic clearance and half-life values are calculated using a graph of the natural log of percentage remaining versus the time of reaction in minutes. Half-life (min) and intrinsic clearance (CIint in μL min^−1 10^−6 cells) values are calculated using the gradient of the graph (the elimination rate constant, k) and Equations 1 and 2.

In series [2] the test system is hepatocytes. Kind of series: Hepatocyte stability assay, human. Conditions: 10 μM compound. Format: in vitro ADME.
From the text: as §1, §2, §3, §4

The subject of another series is IL-1β. Kind of series: THP-1 AlphaLISA IL-1β cytokine assay. The series is classed as cell-based. Conditions: Homo sapiens, differentiated THP-1 cells. The procedure:
Biological Example 1—THP-1 AlphaLISA IL-1β and IL-6 Cytokine Assay Measuring Inhibitory Effects on IL-1, and IL-6 Cytokine Output from THP-1s The cytokine inhibition profiles of compounds of formula (I) were determined in a differentiated THP-1 cell assay. All assays were performed in RPMI-1640 growth medium (Gibco), supplemented with 10% fetal bovine serum (FBS; Gibco), 1% penicillin-streptomycin and 1% sodium pyruvate unless specified otherwise. The IL-1β and IL-6 cytokine inhibition assays were each run in a background of differentiated THP-1 cells as described below. All reagents described were from Sigma-Aldrich unless specified otherwise. Compounds were prepared as 10 mM DMSO stocks. THP-1 cells were expanded as a suspension up to 80% confluence in appropriate growth medium. Cells were harvested, suspended, and treated with an appropriate concentration of phorbol 12-myristate 13-acetate (PMA) over a 72 hr period (37° C./5% CO2). Following 72 hrs of THP-1 cell incubation, cellular medium was removed and replaced with fresh growth media containing 1% of FBS. Working concentrations of compounds were prepared separately in 10% FBS treated growth medium and pre-incubated with the cells for 30 minutes (37° C./5% CO2). Following the 30 minute compound pre-incubation, THP-1s were treated with an appropriate concentration of LPS and the THP-1s were subsequently incubated for a 24 hr period (37° C./5% CO2). An appropriate final concentration of Nigericin was then dispensed into the THP-1 plates and incubated for 1 hour (37° C./5% CO2) before THP-1 supernatants were harvested and collected in separate polypropylene 96-well holding plates. Reagents from each of the IL-1β and IL-6 commercial kits (Perkin Elmer) were prepared and run according to the manufacturer's instructions. Subsequently, fluorescence signal detection in a microplate reader was measured (EnVision® Multilabel Reader, Perkin Elmer). Percentage inhibition was calculated per cytokine by normalizing the sample data to the high and low controls used within each plate (+/−LPS respectively). Percentage inhibition was then plotted against compound concentration and the 50% inhibitory concentration (IC50) was determined from the resultant concentration-response curve.
(In Alpha technology, singlet oxygen from a donor bead excites a nearby acceptor bead.)

The next series concerns NRF2. Kind of series: NRF2 activation assay (DiscoverX PathHunter NRF2 translocation kit, U2OS cells). Format: cell-based. The protocol:
Biological Example 2—NRF2 Activation Assay Measuring Compound Activation Effects on the Anti-Inflammatory Transcription Factor NRF2 in DiscoverX PathHunter NRF2 Translocation Kit Potency and efficacy of compounds of formula (I) against the target of interest to activate NRF2 (nuclear factor erythroid 2-related factor 2) were determined using the PathHunter NRF2 translocation kit (DiscoverX). The NRF2 translocation assay was run using an engineered recombinant cell line, utilising enzyme fragment complementation to determine activation of the Keap1-NRF2 protein complex and subsequent translocation of NRF2 into the nucleus. Enzyme activity was quantified using a chemiluminescent substrate consumed following the formation of a functional enzyme upon PK-tagged NRF2 translocation into the nucleus. Additionally, a defined concentration of dimethyl fumarate was used as the ‘High’ control to normalise test compound activation responses to. U2OS PathHunter eXpress cells were thawed from frozen prior to plating. Following plating, U2OS cells were incubated for 24 hrs (37° C./5% CO2) in commercial kit provided cell medium. Following 24 hrs of U2OS incubation, cells were directly treated with an appropriate final concentration of compound. Following compound treatment, the U2OS plates were incubated for a further 6 hours (37° C./5% CO2) before detection reagent from the PathHunter NRF2 commercial kit was prepared and added to test plates according to the manufacturer's instructions. Subsequently, the luminescence signal detection in a microplate reader was measured (PHERAstar®, BMG Labtech). Percentage activation was calculated by normalising the sample data to the high and low controls used within each plate (+/−DMF). Percentage activation/response was then plotted against compound concentration and the 50% activation concentration (EC50) was determined from the plotted concentration-response curve.

Series [3] in a line: Hepatocyte stability assay, mouse. The series is classed as in vitro ADME. Conditions: mouse, cryopreserved hepatocytes, 10 μM compound.
From the text: as §1, §2, §3, §4

The subject of series [4] is hepatocytes. Kind of series: Hepatocyte stability assay, mouse. The series is classed as in vitro ADME. The following applies: 10 μM compound.
From the text: as §1, §2, §3, §4

Where [5] appears, read: +GSH, normalised to dimethyl fumarate high control, Table 3.
Setting [6] is: −GSH, normalised to dimethyl fumarate high control, Table 3.
Setting [7] is: Table 2, compounds of formula (II).
Setting [8] is: +GSH, Table 4, compounds of formula (II).
The mark [9] stands for this setting: −GSH, Table 4, compounds of formula (II).

SMILES strings stand for the structures. Structures can show the parent of a compound that is named as a salt.

Usually IC50 stands for the midpoint of a concentration-inhibition curve. Low readings indicate greater potency, high ones weaker potency. By EC50 is commonly meant the concentration at which the effect is half-maximal.

As for `O=C(/C=C/C(=O)OC1(C(=O)O)CC1)OC1CCCCCCC1` [Example 8, (E)-1-((4-(cyclooctyloxy)-4-oxobut-2-enoyl)oxy)cyclopropane-1-carboxylic acid], the half-life at 10 μM in series [1] (Table 5, read-out: T½) is 5 to 29 min; in series [3] (Table 5, read-out: T½), < 5 min. For the same compound, the CIint result is given as “+++ (+++ means 50-149)” in the series on hepatocytes [2] (Table 5) and “+ (+ means >277)” with hepatocytes [4] (Table 5). Further, the IC50 in the series with IL-1β (LPS then Nigericin, Table 1) was < 2.5 µM. For the same compound, the concentration giving a half-maximal response (EC50) with NRF2 (+GSH, Table 3) is 20 to 100 µM; in the series on NRF2 (−GSH, Table 3), < 2 µM. The entries for the “NRF2 activation Emax” value in the series with NRF2 (setting [5]) and with NRF2 (setting [6]) were “++ (++ means 100-149)” and “++++ (++++ means 200-250%)”, respectively.

For the compound `O=C(O)/C=C/C(=O)OC1CCCCCCC1` [Intermediate 6, (E)-4-(cyclooctyloxy)-4-oxobut-2-enoic acid], the half-life at 10 μM in series [1] (Table 6, read-out: T½) is > 100 min; in series [3] (Table 6, read-out: T½), 5 to 29 min. For the same compound, the CIint entry in the series with hepatocytes [2] (Table 6) is “++++ (++++ means 5-15)”; in the series on hepatocytes [4] (Table 6), “++ (++ means >30-110)”. Besides, the IC50 with IL-1β (setting [7]) lay within 6 to 30 µM. The EC50 with NRF2 (setting [8]) and in the series with NRF2 (setting [9]) was < 23 µM throughout. In addition, the “NRF2 activation Emax” value in the series with NRF2 (setting [8]) and in the series with NRF2 (setting [9]) was “++++ (++++ means >150%)” throughout.

With `C[C@@H](OC(=O)/C=C/C(=O)OC1CCCCCCC1)C(=O)O` [Example 12, (R,E)-2-((4-(cyclooctyloxy)-4-oxobut-2-enoyl)oxy)propanoic acid], the half-life at 10 μM in series [1] (Table 5, read-out: T½) is > 100 min; in series [3] (Table 5, read-out: T½), < 5 min. The CIint result with hepatocytes [2] (Table 5) is “++++ (++++ means <50)”; in the series on hepatocytes [4] (Table 5), “+ (+ means >277)”. In the series with IL-1β (LPS then Nigericin, Table 1), the IC50 is < 2.5 µM. Also, the EC50 was 6 to 20 µM in the series with NRF2 (+GSH, Table 3) and < 2 µM in the series with NRF2 (−GSH, Table 3). For the same compound, the “NRF2 activation Emax” value in the series on NRF2 (setting [5]) is reported as “++ (++ means 100-149)”; with NRF2 (setting [6]), “++++ (++++ means 200-250%)”.

In the case of `O=C(O)/C=C/C(=O)OC1CC2(CCC2)C1` [Intermediate 7, (E)-4-oxo-4-(spiro[3.3]heptan-2-yloxy)but-2-enoic acid], the half-life at 10 μM is 30 to 100 min in series [1] (Table 6, read-out: T½) and 5 to 29 min in series [3] (Table 6, read-out: T½). Besides, the CIint entry in the series with hepatocytes [2] (Table 6) is recorded as “+++ (+++ means >15-30)”; in the series with hepatocytes [4] (Table 6), “++ (++ means >30-110)”. In the series with IL-1β (setting [7]), this compound displayed an IC50 of 6 to 30 µM. In addition, the EC50 in the series on NRF2 (setting [8]) and in the series on NRF2 (setting [9]) was < 23 µM throughout. Further, the “NRF2 activation Emax” value is given as “+++ (+++ means >114-150%)” with NRF2 (setting [8]) and “++++ (++++ means >150%)” with NRF2 (setting [9]).

In the case of `O=C(/C=C/C(=O)OC1CCCCCCC1)OCCc1nnn[nH]1` [Example 5, 2-(1H-tetrazol-5-yl)ethyl cyclooctyl fumarate], the half-life at 10 μM in series [1] (Table 5, read-out: T½) is 5 to 29 min; in series [3] (Table 5, read-out: T½), < 5 min. Also, the CIint entry is recorded as “++ (++ means 150-277)” in the series on hepatocytes [2] (Table 5) and “+ (+ means >277)” in the series with hepatocytes [4] (Table 5). In the series with IL-1β (LPS then Nigericin, Table 1), the IC50 fell in the range of 2.5 to 6.1 µM. Further, the EC50 with NRF2 (+GSH, Table 3) is 20 to 100 µM; with NRF2 (−GSH, Table 3), 2.1 to 6 µM. For the same compound, the “NRF2 activation Emax” value with NRF2 (setting [5]) was “+ (+ means >17.1-99)”; in the series on NRF2 (setting [6]) it was “+++ (+++ means 150-199%)”.

Consider `O=C(O)/C=C/C(=O)OC1CCCCCC1` [Intermediate 8, (E)-4-(cycloheptyloxy)-4-oxobut-2-enoic acid], for which the half-life at 10 μM is 30 to 100 min in series [1] (Table 6, read-out: T½) and 30 to 100 min in series [3] (Table 6, read-out: T½). The CIint entry with hepatocytes [2] (Table 6) is given as “+++ (+++ means >15-30)”; in the series on hepatocytes [4] (Table 6), “++ (++ means >30-110)”. The compound further returned an IC50 in the series with IL-1β (setting [7]) of 30 to 50 µM. Moreover, the EC50 in the series with NRF2 (setting [8]) was 23 to 48.4 µM; with NRF2 (setting [9]) it was < 23 µM. Besides, the “NRF2 activation Emax” value is “+++ (+++ means >114-150%)” in the series with NRF2 (setting [8]) and “++++ (++++ means >150%)” with NRF2 (setting [9]).
